Assays:
[1] = test system: red cells of subjects suffering from drepanocytosis; test: Inhibition of sickling of human red blood corpuscules of subjects suffering from drepanocytosis; type: cell-based; details: pH 7.40, one hour at 37° C.
Description: Inhibition of the sickling of human red blood corpuscules was assessed by washing and incubating, in a saline buffer (pH: 7.40; 0.15M) for one hour at 37° C., the red cells of subjects suffering from drepanocytosis. This operation was carried out in a water-bath under stirring and in the presence of a compound of the invention used at different concentrations. The molar ratios between the compound of the invention and the haemoglobin were initially tested at intervals ranging from 0.5 to 20, the mM concentration in haemoglobin being 0.5 in each case and the ratio being modified according to the results obtained.
At the end of incubation, the excess of the product being tested was removed by washing and the cellular suspension adjusted so as to form a haematocrit of 5% was transferred to an Erlenmeyer flask and incubated at 37° C. under a current comprising a humidified mixture of nitrogen and oxygen the oxygen concentration being regulated by a gas-mixing pump. The effluent gas was then transferred to another tube containing formaldehyde and, at the end of incubation, the cellular suspension was transferred to the formaldehyde by merely turning the flask upside down.
The proportion of deformed cells and those having the characteristics of drepanocytes (having two filiform extensions) was assessed with the aid of a microscope having a NORMARSKY interferential optical system. Inhibition of sickling was calculated according to the following formula: [formula]
The following results were obtained with representative compounds of the present invention in comparison with cystamine.

sickling = details: literature: Inserm Symposium 1979; in words; cited from earlier work

SMILES	% inhibition of sickling of the red blood corpuscles ([1]; 5 mmolar) [%]	inhibiting sickling (sickling)	% inhibition of sickling of the red blood corpuscles ([1]; 1 mmolar) [%]	% inhibition of sickling of the red blood corpuscles ([1]; 0.5 mmolar) [%]
NCCSSCCN [Cystamine, cystamine, reference compound]	33	particularly active		
Cc1ccc(S(=O)(=O)Sc2nnc(N)s2)cc1 [5-amino-1,3,4-thiadiazol-2-yl p-toluenethiosulfonate]			33	
Cc1ccc(S(=O)(=O)Sc2ncc[nH]2)cc1 [1H-imidazol-2-yl p-toluenethiosulfonate]			100	50

Source: patent publication US4696937A, “Thiosulfonate derivatives for inhibiting malformation or destruction of red blood corpuscules” (Sanofi, priority 1984, dated 1987)
